Source: ChEMBL document CHEMBL5154813 (Eur J Med Chem, 2022)
pEC50: −log10 of the molar value. Activity calls are given as the source filed them. The rule behind the calls is not given here.

How the values were obtained:
HepaRG [1] = assay: Reduction of lipid accumulation in oleic acid-induced steatosis in human HepaRG cells at 10 uM treated for 2 weeks with media replenishment along with compound and inducer for every 2 days by Oil Red O staining based microscopy; assay type: functional, cell-based
HepaRG [2] = assay: Reduction of lipid accumulation in oleic acid-induced steatosis in human HepaRG cells at 10 uM treated for 2 weeks with media replenishment along with compound and inducer for every 2 days by spectrophotometry; assay type: functional, cell-based
[3] = target: T1, Peroxisome proliferator-activated receptor alpha (Homo sapiens, UniProt Q07869); assay: Agonist activity at yeast Gal4-fused human PPARalpha LBD transfected in human HepG2 cells assessed as transactivation by measuring beta-galactosidase activity incubated for 20 hrs by luminometry; assay type: cell-based
T1 sequence (Q07869 whole entry): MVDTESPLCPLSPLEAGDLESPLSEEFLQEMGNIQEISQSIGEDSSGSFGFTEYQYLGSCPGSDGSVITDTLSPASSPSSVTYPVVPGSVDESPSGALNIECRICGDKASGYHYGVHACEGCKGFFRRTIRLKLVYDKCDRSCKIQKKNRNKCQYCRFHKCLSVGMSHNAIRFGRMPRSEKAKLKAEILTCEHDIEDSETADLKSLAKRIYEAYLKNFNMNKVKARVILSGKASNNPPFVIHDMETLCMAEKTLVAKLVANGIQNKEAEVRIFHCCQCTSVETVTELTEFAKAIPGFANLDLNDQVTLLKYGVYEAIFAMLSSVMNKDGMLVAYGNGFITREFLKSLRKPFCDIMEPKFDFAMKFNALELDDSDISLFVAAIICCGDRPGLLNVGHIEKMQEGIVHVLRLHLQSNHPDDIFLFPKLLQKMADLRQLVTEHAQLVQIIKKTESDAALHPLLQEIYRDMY

[4] = target: T2, Peroxisome proliferator-activated receptor alpha (Homo sapiens) (UniProt Q07869); assay: Agonist activity at yeast Gal4-fused human PPARalpha LBD transfected in human HepG2 cells assessed as transactivation by measuring beta-galactosidase activity incubated for 20 hrs by luminometry relative to control; assay type: cell-based
T2 sequence (whole entry): T1 sequence (Q07869 whole entry)

[5] = target: T3, Peroxisome proliferator-activated receptor gamma (Homo sapiens, UniProt P37231); assay: Agonist activity at yeast Gal4-fused human PPARgamma transfected in human HepG2 cells assessed as transactivation by measuring beta-galactosidase activity incubated for 20 hrs by luminometry; assay type: cell-based
T3 sequence (P37231 whole entry): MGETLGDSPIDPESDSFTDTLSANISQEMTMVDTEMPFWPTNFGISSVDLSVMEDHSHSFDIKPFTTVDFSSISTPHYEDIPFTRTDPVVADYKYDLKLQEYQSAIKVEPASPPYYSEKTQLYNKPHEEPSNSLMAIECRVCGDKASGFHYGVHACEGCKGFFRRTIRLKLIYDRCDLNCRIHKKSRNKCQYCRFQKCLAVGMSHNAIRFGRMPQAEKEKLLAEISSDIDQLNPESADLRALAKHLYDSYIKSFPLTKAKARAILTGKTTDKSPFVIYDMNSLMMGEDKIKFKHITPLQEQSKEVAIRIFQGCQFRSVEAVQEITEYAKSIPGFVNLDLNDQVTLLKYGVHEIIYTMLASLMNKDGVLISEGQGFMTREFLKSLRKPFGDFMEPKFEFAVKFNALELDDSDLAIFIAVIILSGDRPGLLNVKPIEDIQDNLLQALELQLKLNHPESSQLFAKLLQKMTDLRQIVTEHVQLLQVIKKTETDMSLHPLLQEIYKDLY

[6] = target: T4, Peroxisome proliferator-activated receptor delta (Homo sapiens, UniProt Q03181); assay: Agonist activity at yeast Gal4-fused human PPARdelta transfected in human HepG2 cells assessed as transactivation by measuring beta-galactosidase activity incubated for 20 hrs by luminometry; assay type: cell-based
T4 sequence (Q03181 whole entry): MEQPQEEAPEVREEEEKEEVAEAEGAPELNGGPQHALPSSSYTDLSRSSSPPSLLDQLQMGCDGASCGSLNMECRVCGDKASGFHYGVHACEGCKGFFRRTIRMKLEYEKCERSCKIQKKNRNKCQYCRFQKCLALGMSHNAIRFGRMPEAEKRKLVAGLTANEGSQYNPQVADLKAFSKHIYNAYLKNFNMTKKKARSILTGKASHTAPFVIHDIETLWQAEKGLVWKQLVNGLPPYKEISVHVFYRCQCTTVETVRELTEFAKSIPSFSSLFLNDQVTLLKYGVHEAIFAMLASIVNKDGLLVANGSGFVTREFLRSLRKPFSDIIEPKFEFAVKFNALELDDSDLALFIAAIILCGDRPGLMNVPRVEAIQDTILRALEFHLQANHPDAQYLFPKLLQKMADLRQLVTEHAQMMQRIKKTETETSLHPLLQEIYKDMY

HepaRG [7] = assay: Reduction of lipid accumulation in oleic acid-induced steatosis in human HepaRG cells at 250 uM treated for 2 weeks with media replenishment along with compound and inducer for every 2 days by Oil Red O staining based microscopy; assay type: functional, cell-based
HepaRG [8] = assay: Reduction of lipid accumulation in oleic acid-induced steatosis in human HepaRG cells at 250 uM treated for 2 weeks with media replenishment along with compound and inducer for every 2 days by spectrophotometry; assay type: functional, cell-based
[9] = target: T5, Peroxisome proliferator-activated receptor (Homo sapiens) (UniProt P37231+Q07869+Q03181); assay: Agonist activity at PPAR in oleic acid-induced steatosis in human HepaRG cells assessed as increase in HMGCS2 mRNA levels at 100 uM treated for 2 weeks with media replenishment along with compound and inducer for every 2 days by RT-qPCR analysis; assay type: cell-based; conditions: filed as agonist
[10] = target: T5, Peroxisome proliferator-activated receptor (Homo sapiens); assay: Agonist activity at PPAR in oleic acid-induced steatosis in human HepaRG cells assessed as increase in liver CPT1a mRNA levels at 100 uM treated for 2 weeks with media replenishment along with compound and inducer for every 2 days by RT-qPCR analysis; assay type: cell-based; conditions: filed as agonist
HepaRG [11] = assay: Reduction of lipid accumulation in oleic acid-induced steatosis in human HepaRG cells at 100 uM treated for 24 hrs by spectrophotometry; assay type: functional, cell-based
HepaRG [12] = assay: Reduction of lipid accumulation in oleic acid-induced steatosis in human HepaRG cells at 100 uM treated for 2 weeks with media replenishment along with compound and inducer for every 2 days by Oil Red O staining based microscopy; assay type: functional, cell-based
[13] = target: T5, Peroxisome proliferator-activated receptor (Homo sapiens); assay: Agonist activity at PPAR in oleic acid-induced steatosis in human HepaRG cells assessed as increase in HMGCS2 mRNA levels at 100 uM treated for 24 hrs by RT-qPCR analysis; assay type: cell-based; conditions: filed as agonist
[14] = target: T5, Peroxisome proliferator-activated receptor (Homo sapiens); assay: Agonist activity at PPAR in oleic acid-induced steatosis in human HepaRG cells assessed as increase in FGF21 mRNA levels at 100 uM treated for 24 hrs by RT-qPCR analysis; assay type: cell-based; conditions: filed as agonist
[15] = target: T5, Peroxisome proliferator-activated receptor (Homo sapiens); assay: Agonist activity at PPAR in oleic acid-induced steatosis in human HepaRG cells assessed as increase in PDK4 mRNA levels at 100 uM treated for 24 hrs by RT-qPCR analysis; assay type: cell-based; conditions: filed as agonist
[16] = target: T5, Peroxisome proliferator-activated receptor (Homo sapiens); assay: Agonist activity at PPAR in oleic acid-induced steatosis in human HepaRG cells assessed as increase in FABP1 mRNA levels at 100 uM treated for 24 hrs by RT-qPCR analysis; assay type: cell-based; conditions: filed as agonist
[17] = target: T5, Peroxisome proliferator-activated receptor (Homo sapiens); assay: Agonist activity at PPAR in oleic acid-induced steatosis in human HepaRG cells assessed as increase in FGF21 mRNA levels at 100 uM treated for 2 weeks with media replenishment along with compound and inducer for every 2 days by RT-qPCR analysis; assay type: cell-based; conditions: filed as agonist
[18] = target: T5, Peroxisome proliferator-activated receptor (Homo sapiens); assay: Agonist activity at PPAR in oleic acid-induced steatosis in human HepaRG cells assessed as increase in FABP1 mRNA levels at 100 uM treated for 2 weeks with media replenishment along with compound and inducer for every 2 days by RT-qPCR analysis; assay type: cell-based; conditions: filed as agonist
C2C12 [19] = assay: Induction of 2-NBD-glucose uptake in mouse C2C12 cells at 25 uM incubated in starvation medium with replacement of fresh medium for every 24 hrs for 96 hrs followed by insulin stimulation for 30 mins followed by 2-NBD-glucose treatment for 3 hrs by flow cytometric analysis; assay type: functional, cell-based; conditions: time 99.5 hrs
HepaRG [20] = assay: Reduction of lipid accumulation in oleic acid-induced steatosis in human HepaRG cells at 100 uM treated for 24 hrs by Oil Red O staining based microscopy; assay type: functional, cell-based
HepaRG [21] = assay: Reduction of lipid accumulation in oleic acid-induced steatosis in human HepaRG cells at 100 uM treated for 2 weeks with media replenishment along with compound and inducer for every 2 days by spectrophotometry; assay type: functional, cell-based
C2C12 [22] = assay: Induction of 2-NBD-glucose uptake in mouse C2C12 cells at 25 uM incubated in starvation medium with replacement of fresh medium for every 24 hrs for 96 hrs followed by 2-NBD-glucose treatment for 3 hrs by flow cytometric analysis; assay type: functional, cell-based; conditions: time 99.0 hrs
[23] = Permeability of compound in human Caco-2 cells; assay type: ADME, cell-based

SMILES	pEC50 [3]	Emax ([4]; filed as agonist)	pEC50 [5]	further results
CN(CCOc1ccc(CC2SC(=O)NC2=O)cc1)c1ccccn1 (stereo not given)	–	–	–	Activity (HepaRG [1]): Active; Activity (HepaRG [2]): Active
O=C(NC(CSCc1ccc(C(=O)c2ccccc2)cc1)C(=O)O)c1ccccc1 (stereo not given)	–	–	–	Emax [4]: 21%
CC(C)(C)OC(=O)NC(CSCc1ccc(C(=O)c2ccc([N+](=O)[O-])cc2)cc1)C(=O)O (stereo not given)	5.32	103%	4.89	–
O=C(NC(CSCc1ccc(-c2ccc(Cl)cc2)cc1)C(=O)O)OCc1ccccc1 (stereo not given)	6.87	138%	–	–
O=C(Cc1ccccc1)NC(CSCc1ccccc1)C(=O)O (stereo not given)	5.59	148%	4.96	–
CC(SCc1ccccc1)C(NC(=O)c1ccccc1)C(=O)O (stereo not given)	5.04	48%	–	–
O=C(NC(CSCc1ccc(C(=O)c2ccccc2)cc1)C(=O)O)OCc1ccccc1 (stereo not given)	5.72	90%	5.10	–
O=C(NC(CSCc1ccc(Cc2ccc(Cl)cc2)cc1)C(=O)O)OCc1ccccc1 (stereo not given)	7.80	165%	–	–
CC(C)OC(=O)C(C)(C)Oc1ccc(C(=O)c2ccc(Cl)cc2)cc1	–	–	–	Activity (HepaRG [7]): Active; Activity (HepaRG [8]): Active
CC(C)(C)OC(=O)NC(COCc1ccc(C(=O)c2ccccc2)cc1)C(=O)O (stereo not given)	4.92	49%	4.70	–
CC(C)(C)OC(=O)NC(CSCc1ccc(C(=O)c2ccc(C(F)(F)F)cc2)cc1)C(=O)O (stereo not given)	6.60	77%	5.66	–

More lines, main results first:

pEC50 [3]	Emax ([4]; filed as agonist)	pEC50 [5]	SMILES	further results
6.24	64%	5.47	CC(C)(C)OC(=O)NC(CSCc1ccc(Cc2ccccc2)cc1)C(=O)O (stereo not given)	–
6.43	95%	5.49	CC(C)(C)OC(=O)NC(CSCc1ccc(C(=O)c2ccc(Cl)cc2)cc1)C(=O)O (stereo not given)	–
5.00	52%	–	CC(C)(C)OC(=O)NC(COCc1ccc(Cc2ccccc2)cc1)C(=O)O (stereo not given)	–
5.80	83%	4.99	CC(C)(C)OC(=O)NC(CSCc1ccc(C(=O)c2ccccc2)cc1)C(=O)O (stereo not given)	pEC50 [6]: 4.43
6.15	108%	5.41	CC(C)(C)OC(=O)NC(CSCc1ccc(-c2ccccc2)cc1)C(=O)O (stereo not given)	–
6.42	99%	5.12	COc1ccc(C(=O)c2ccc(CSCC(NC(=O)OC(C)(C)C)C(=O)O)cc2)cc1 (stereo not given)	–
5.84	118%	4.59	CC(C)(C)OC(=O)NC(CSCc1ccccc1)C(=O)O (stereo not given)	–
5.80	108%	5.08	CC(C)(C)OC(=O)N[C@@H](CSCc1ccc(C(=O)c2ccccc2)cc1)C(=O)O	Activity [9]: Active; Activity [10]: Active; pEC50 [6]: 4.55; Activity (HepaRG [11]): Active; Activity (HepaRG [12]): Active; Activity [13]: Active; Activity [14]: Active; Activity [15]: Active; Activity [16]: Active; Activity [17]: Active; Activity [18]: Active; Activity (C2C12 [19]): Active; Activity (HepaRG [20]): Active; Activity (HepaRG [21]): Active; Activity (C2C12 [22]): Active; permeability [23]: Permeable
5.14	100%	4.89	CC(C)(C)OC(=O)NC(COCc1ccc(-c2ccccc2)cc1)C(=O)O (stereo not given)	–
6.10	94%	4.99	CC(C)(C)OC(=O)NC(CSCc1ccc(/C=C/C(=O)c2ccccc2)cc1)C(=O)O (stereo not given)	–
6.03	89%	5.34	Cc1ccc(C(=O)c2ccc(CSCC(NC(=O)OC(C)(C)C)C(=O)O)cc2)cc1 (stereo not given)	–
